Data on six molecules can be found in patent US6960594B2, “Thiophene and furan 2,5-dicarboxamides useful in the treatment of cancer” (Shire BioChem Inc., priority 1998, dated 2005).

Structures can show the parent of a compound that is named as a salt. A value given as a limit tells only on which side of the number the result lay.

Assay [1] concerns the target T1, α5β1 (Homo sapiens, UniProt P05556+P08648).
T1 construct: Cells HT29, K562, or K562 transfected with αvβ3; endogenous in cells; host or cells: K562
The experiment in a line: Cell adhesion assay, K562 on fibronectin. The assay is classed as cell-based. To be noted: K562 cells, adhesion to fibronectin, 1 hour. How it is done:
(§1) The wells of 96-well plates (Immunolon) were coated, by incubation overnight at 4° C., with 5 ug/mL vitronectin, 2 ug/mL osteopontin, or fibronectin or 10 mg/mL BSA in PBS. The protein solution was flicked out and the wells were blocked with 10 mg/mL BSA (0.1 mL) for 1-2 hours at 37° C. Cells HT29, K562, or K562 transfected with αvβ3 (Blystone et al., 1994) were loaded with a fluorescent marker, 5-chloromethylfluorescein diacetate (Molecular Probes, Eugene, Oreg.) for 1 hour at 37° C., then incubated in fresh medium without the fluorescent marker for 1 hour. Cells were lifted with trypsin-EDTA and washed two times with Hank's balanced salt solution minus cations (Sigma) supplemented with 1 mM MgCl2 Cells (75,000 cells/well) were added to coated plates in triplicate and allowed to attach at 37° C. for 1 hour in the presence or absence of specific antibodies (5 ug/mL) or 10-fold dilutions of compounds of interest starting at 10 uM. Nonadherent cells were removed by gentle washing twice with PBS. The adherent cells were solubilized with 1% triton x-100 and detected using a fluorescence plate reader (DYNEX Technologies). The number of attached cells was calculated based upon standard curves for each cell line used in the experiment. Non-specific cell attachment (attachment to wells coated with BSA) was always less than 5%.

For assay [2], the target named is T2, αvβ5 (Homo sapiens, UniProt P06756+P18084).
T2 construct: Cells HT29, K562, or K562 transfected with αvβ3; endogenous in cells; host or cells: HT29
The experiment in a line: Cell adhesion assay, HT29 on vitronectin. To be noted: HT29 cells, adhesion to vitronectin, 1 hour; read-out: IC50 HT29 Vitronectin (αvβ5). In kind it is cell-based. The procedure: as §1, with “Cells HT29, K562, or K562 transfected with αvβ3 (Blystone et al., 1994) were loaded with a fluorescent marker, 5-chloromethylfluorescein diacetate (Molecular Probes, Eugene, Oreg.) for 1 hour at 37° C., then incubated in fresh medium without the fluorescent marker for 1 hour.” left out, “experiment.” for “experiment. Non-specific cell attachment (attachment to wells coated with BSA) was always less than 5%.”

Assay [3] addresses T3, αvβ3 (Homo sapiens, UniProt P05106+P06756).
T3 construct: expressed in transfected cells; host or cells: K562
The experiment in a line: Cell adhesion assay, K562-tr on osteopontin. The assay is classed as cell-based. To be noted: K562 transfected with αvβ3, adhesion to osteopontin, 1 hour; read-out: IC50 K562-tr Osteopontin (αvβ3). The procedure: as §1, with “Cells HT29, K562, or K562 transfected with αvβ3 (Blystone et al., 1994) were loaded with a fluorescent marker, 5-chloromethylfluorescein diacetate (Molecular Probes, Eugene, Oreg.) for 1 hour at 37° C., then incubated in fresh medium without the fluorescent marker for 1 hour.” left out, “experiment.” for “experiment. Non-specific cell attachment (attachment to wells coated with BSA) was always less than 5%.”

The test system of assay [4] is HT29. Put plainly: Cell proliferation and cytotoxicity MTT assay, HT29. In kind it is cell-based. To be noted: Homo sapiens, HT-29, 72 hours culture. The procedure: (§2) The wells of microtiter plates were seeded with 2000 cells/well T24, 2500 cells/well HT29 or 5000 cells/well HMVEC (Cell Systems) in 100 uL, followed by an overnight culture for cell adhesion. The next day, the media is supplemented with 100 uL of 10-fold dilution of compound of interest starting at 10 uM. Following culture for 72 hours, 3-(4,5-dimethyl-2-thiazolyl)-2,5-diphenyltetrazolium bromide (MTT; Sigma) at 2 mg/mL was added to each well (50 uL/well) and further incubated for 4 hours at 37° C. The medium was flicked out and 200 uL of a 1:1 solution of ethanol:acetone followed by 25 uL of glycine buffer (0.1 M glycine, 0.1M NaCl, pH 10.5) is added and the color measured by the absorbance at 570 nm.

Assay [5] relates to Chick chorioallantoic membrane (CAM) capillary formation driven by VPF/VEGF165. The experiment in a line: Chick chorioallantoic membrane (CAM) mesh assay. In kind it is in vivo, chicken. Particulars: significant if >25%. The procedure:
Fertilized white leghorn chicken eggs (SPAFAS Inc., Norwich, Conn.) were received at day 0 and incubated for 3 days at 37 C with constant humidity. On day 3, eggs were rinsed with 70% ethanol and opened into 100 mm^2 tissue culture coated Petri dishes under aseptic conditions. The embryos were then returned to a humidified 38 C incubator for 7-9 additional days.
Vitrogen (Collagen Biomaterials, Palo Alto, Calif.) at a final concentration of 0.73 mg/mL and Matrigel (Becton Dickinson, Bedford, Mass.) at a final concentration of 10 mg/mL was directly pipetted onto Nylon meshes with 250 μm^2 openings which were cut into 4 mm×4 mm squares and autoclaved. Polymerization of meshes were under aseptic conditions, on bacteriological Petri dishes. The polymerization conditions for each substrate were identical; after mixing with or without 250 μg of VPF/VEGF165 (Peprotech, Rocky Hill, N.J.) and/or compounds of interest, 40 μL were pipetted onto each mesh in a bacteriological Petri dish. The Petri dish was placed in a humidified 37 C incubator with 5% CO2 for 30 minutes to allow polymerization followed by an incubation at 4° C. for 2 hours.
In a tissue culture enclosure, meshes were placed onto the periphery of the CAM of a day 12-14 embryo, excluding areas containing major vessels. The embryos were then returned to the humidified 38° C. incubator with 3% CO2 for 24 to 48 additional hours.
Embryos were removed from the incubator and meshes were viewed under a dissecting microscope for gross evaluation. Injection of 400 μL FITC dextran, MW 2,000,000 (Sigma, St. Louis, Mo.) through glass microcapillary tubes by infusion into the umbilical vein was performed at a rate of 200 μl per minute. The FITC dextran was allowed to circulate for 5 minutes and 3.7% formaldehyde in PBS was applied directly on each mesh. The embryos were then incubated at 40° C. for 5 minutes and the meshes were dissected off the CAM and fixed in 3.7% formaldehyde for 10 minutes to overnight.
After fixation, meshes were mounted on slides with 90% glycerol in PBS and visualized on an inverted fluorescence microscope. A Nikon Diaphot with a Sony DXC-151A camera attached to the side port was used for capture of images and analysis was with the NIH Image 1.61 software program. For each mesh, 5 random staggered images (approximately 600 μm each) were captured. The areas of high intensity were highlighted and measured. Results are expressed as ability to suppress capillary formation after subtraction from negative control. Values were calculated as a inhibition, considering 100% the capillary density achieved by VPF in the presence of vitrogen alone minus the bakground levels in the absence of VPF. Negative values indicated angiogenic stimulation above the VPF positive control.

Assay [6] has as its target T4, placental αvβ3 (Homo sapiens, UniProt P05106+P06756).
T4 construct: placental αvβ3 at 0.5 ug/mL; from tissue; host or cells: placenta
Put plainly: Fibrinogen binding to immobilized αvβ3. Particulars: biotinylated-fibrinogen (10 nM) binding to immobilized αvβ3; read-out: IC50 αvβ3. The procedure: (§3) The wells of plastic microtiter plates were coated overnight at 4° C. with purified active αIIbβ3 (Calbiochem) or placental αvβ3 at 0.5 ug/mL (100 uL/well) in a buffer containing 150 mM NaCl, 20 mM Tris, pH 7.4, 1 mM MgCl2, 0.2 mM MnCl2, and including 1 mM CaCl2 for αIIbβ3. Blocking of nonspecific sites was achieved by incubating the wells with 35 mg/mL bovine serum albumin (BSA) for at least 2 hours at 37° C. Biotinylated-fibrinogen (10 nM) was added in 0.2 mL binding buffer (100 mM NaCl, 50 mM Tris, pH 7.4, 1 mM MgCl2, 0.2 mM MnCl2 and 1 mg/mL BSA including 1 mM CaCl2 for αIIbβ3) to the wells in triplicate in the absence or presence of increasing concentrations of compounds of interest (0.001-100 uM) and further incubated for 2 hours at 37° C. Nonbound fibrinogen was removed by five washes with binding buffer. Avidin conjugated to alkaline phosphatase (Sigma), diluted in binding buffer, was added and incubated for two hours at 37° C. The plates were washed five times with binding buffer, and after addition of the substrate PNPP (Pierce), the enzyme activity was measured by the absorbance at 405 nm.

Assay [7] addresses T5, GP IIb-IIIa (αIIbβ3) (Homo sapiens, UniProt P05106+P08514).
T5 construct: purchased Calbiochem
The experiment in a line: Fibrinogen binding to immobilized GP IIb-IIIa (αIIbβ3). Particulars: biotinylated-fibrinogen (10 nM) binding to immobilized αIIbβ3; read-out: IC50 αIIbβ3. The procedure:
as §3

Assay [8] has as its system HMVEC. The experiment in a line: Cell proliferation and cytotoxicity MTT assay, HMVEC. In kind it is cell-based. To be noted: HMVEC, 72 hours culture. How it is done: as §2
On the technique in general: Tetrazolium assays rely on reduction of a dye to a coloured formazan, in cell work by metabolically active cells.

The subject of assay [9] is Human non small-cell lung cancer cell line H460. Put plainly: Inhibition of metastasis in angiomouse/metamouse human lung cancer model of H460. In kind it is in vivo, athymic BALB/c nude mice. To be noted: Group B, 10 mg/kg SC 3 times/week. The procedure:
Male and female athymic BALB/c nude mice between 4 and 5 weeks of age were used. The animals were bred and maintained in an HEPA-filtered environment with cages, food and bedding sterilized by autoclaving. The breeding pairs were obtained from the Charles River Laboratories (Wilmington, Mass.). The animal diets were obtained from Harlan Teklab (Madison, Wis.). Ampicillin (Sigma, St Louis, Mo.) 5.0% (v/v) was added to the autoclaved drinking water.
Compound VII was tested and AGM-1470 (chloroacetyl-(3R,4S,5S,6R)-5-methoxy-4-[(2R,3R)-2-methyl-3-(3-methyl-2-butenyl)oxiranyl]-1-oxaspiro[2.5]oct-6-yl ester carbamic acid) was used as a positive control. [drawing 51] The compounds were dissolved using PEG400 with heating and sonicatin. The solutions were then diluted with saline to obtain the desired concentrations (30%/70%) and stored at −20° C.
Human non small-cell lung cancer cell line H460 with expression of green fluorescent protein was obtained from the National Cancer Institute. The cells were transfected with vectors carrying the green fluorescent protein (GFP) gene. The cell line was propagated by subcutaneous implantation in nude mice.
Test animals were transplanted by surgical orthotopic implantation (SOI) using fragments harvested from subcutaneaous tumor stock animals. The animals were anesthetized with isoflurane and the surgical area was sterilized using iodine solution and alcohol. A left thoracotomy was made along the 4th intercostal space using a pair of scissors. Two pieces of H460 tumor tissue of one cubic millimiter each were sutured to the left lung using an 8-0 nylon surgical suture. The thorax was closed using a sterile 6-0 silk suture. A sterile 3-cc syringe with a 25-gauge needle was used to remove the air and inflate the lung. All surgical and animal manipulations and procedures were conducted under HEPA-filtered laminar flow hoods.
Extra numbers of mice were transplanted to compensate for postsurgical losses. The orthotopically transplanted animals used were selected to establish groups of similar mean body weight. Groups for each of the cohort conditions wre randomly chosen. The cohort was grouped as follows. A total of 10 mice were used for each dosage regimen. Administration of test compounds and vehicle by subcutaneous injection was begun three days after the orthotopic implantation.
Two animals for each treatment group were sacrificed at day-14 after orthotopic implantation of H460. The remaining animals for each group were sacrificed at day-28 after implantation. The sacrificed animals were evaluated for primary and secondary tumors. Gross examination for distant metastasis was conducted at necropsy. Tissue samples of the primary tumor and those from relevant organs such as the lung, the liver and the lymph nodes wre processed through standards procedures of hematoxylin and eosin staining for subsequent microscopic examination.
The mediastinal lymph nodes, the liver and the lung in each animal were collected. The sampled tissues were sectioned and stained, then microscopically examined. The fisher-exact test was performed to compare distant metastasis to these organs in the treated and the controls. […]

T1 sequence (P08648 42-894 limits assumed): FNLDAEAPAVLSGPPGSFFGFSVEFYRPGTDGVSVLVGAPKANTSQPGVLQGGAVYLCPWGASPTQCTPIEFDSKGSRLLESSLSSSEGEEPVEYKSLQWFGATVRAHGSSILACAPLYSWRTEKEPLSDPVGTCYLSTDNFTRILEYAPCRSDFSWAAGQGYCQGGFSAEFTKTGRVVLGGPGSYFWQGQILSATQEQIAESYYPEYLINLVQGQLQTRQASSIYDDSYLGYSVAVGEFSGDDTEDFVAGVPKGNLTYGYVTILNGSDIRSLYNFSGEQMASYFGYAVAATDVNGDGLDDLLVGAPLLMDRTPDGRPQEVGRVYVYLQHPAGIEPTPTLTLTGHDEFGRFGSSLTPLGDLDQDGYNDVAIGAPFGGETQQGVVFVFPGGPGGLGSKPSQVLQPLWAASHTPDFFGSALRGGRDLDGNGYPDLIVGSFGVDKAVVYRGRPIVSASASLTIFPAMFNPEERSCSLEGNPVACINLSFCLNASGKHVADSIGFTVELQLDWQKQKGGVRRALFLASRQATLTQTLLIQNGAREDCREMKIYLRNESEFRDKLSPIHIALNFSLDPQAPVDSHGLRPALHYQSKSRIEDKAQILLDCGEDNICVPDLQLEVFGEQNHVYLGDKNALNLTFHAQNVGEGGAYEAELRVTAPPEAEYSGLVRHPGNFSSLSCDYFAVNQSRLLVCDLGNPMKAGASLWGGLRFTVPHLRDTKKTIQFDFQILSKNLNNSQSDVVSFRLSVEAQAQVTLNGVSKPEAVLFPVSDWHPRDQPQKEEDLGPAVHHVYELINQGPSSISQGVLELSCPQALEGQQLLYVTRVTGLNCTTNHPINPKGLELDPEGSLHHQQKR
T1 sequence (P08648 895-1049 partner limits assumed): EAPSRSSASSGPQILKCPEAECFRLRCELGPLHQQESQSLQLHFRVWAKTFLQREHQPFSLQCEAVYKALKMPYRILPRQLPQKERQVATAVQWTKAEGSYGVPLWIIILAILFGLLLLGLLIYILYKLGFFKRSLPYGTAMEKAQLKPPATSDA
T1 sequence (P05556 21-798): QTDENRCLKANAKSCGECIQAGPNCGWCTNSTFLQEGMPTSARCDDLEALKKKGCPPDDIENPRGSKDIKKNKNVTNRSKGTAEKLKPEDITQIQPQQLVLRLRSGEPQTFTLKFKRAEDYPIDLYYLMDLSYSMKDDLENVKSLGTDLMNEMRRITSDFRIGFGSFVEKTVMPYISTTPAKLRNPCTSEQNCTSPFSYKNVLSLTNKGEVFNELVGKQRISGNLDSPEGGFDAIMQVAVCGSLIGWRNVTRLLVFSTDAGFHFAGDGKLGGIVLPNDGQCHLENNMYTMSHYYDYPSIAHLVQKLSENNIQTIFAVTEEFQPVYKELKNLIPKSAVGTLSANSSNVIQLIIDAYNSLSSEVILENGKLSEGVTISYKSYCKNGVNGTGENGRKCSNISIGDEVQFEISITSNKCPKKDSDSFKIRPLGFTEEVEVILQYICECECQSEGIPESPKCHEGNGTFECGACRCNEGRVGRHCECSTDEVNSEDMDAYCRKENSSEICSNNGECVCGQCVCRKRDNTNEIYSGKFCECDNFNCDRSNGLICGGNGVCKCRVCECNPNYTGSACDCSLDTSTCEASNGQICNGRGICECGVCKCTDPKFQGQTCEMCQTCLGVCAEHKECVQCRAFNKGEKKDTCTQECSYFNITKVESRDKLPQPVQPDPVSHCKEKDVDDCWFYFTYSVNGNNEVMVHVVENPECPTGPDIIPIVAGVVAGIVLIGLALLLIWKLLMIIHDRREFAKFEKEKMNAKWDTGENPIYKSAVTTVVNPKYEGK
T3 sequence (P06756 31-889 limits assumed): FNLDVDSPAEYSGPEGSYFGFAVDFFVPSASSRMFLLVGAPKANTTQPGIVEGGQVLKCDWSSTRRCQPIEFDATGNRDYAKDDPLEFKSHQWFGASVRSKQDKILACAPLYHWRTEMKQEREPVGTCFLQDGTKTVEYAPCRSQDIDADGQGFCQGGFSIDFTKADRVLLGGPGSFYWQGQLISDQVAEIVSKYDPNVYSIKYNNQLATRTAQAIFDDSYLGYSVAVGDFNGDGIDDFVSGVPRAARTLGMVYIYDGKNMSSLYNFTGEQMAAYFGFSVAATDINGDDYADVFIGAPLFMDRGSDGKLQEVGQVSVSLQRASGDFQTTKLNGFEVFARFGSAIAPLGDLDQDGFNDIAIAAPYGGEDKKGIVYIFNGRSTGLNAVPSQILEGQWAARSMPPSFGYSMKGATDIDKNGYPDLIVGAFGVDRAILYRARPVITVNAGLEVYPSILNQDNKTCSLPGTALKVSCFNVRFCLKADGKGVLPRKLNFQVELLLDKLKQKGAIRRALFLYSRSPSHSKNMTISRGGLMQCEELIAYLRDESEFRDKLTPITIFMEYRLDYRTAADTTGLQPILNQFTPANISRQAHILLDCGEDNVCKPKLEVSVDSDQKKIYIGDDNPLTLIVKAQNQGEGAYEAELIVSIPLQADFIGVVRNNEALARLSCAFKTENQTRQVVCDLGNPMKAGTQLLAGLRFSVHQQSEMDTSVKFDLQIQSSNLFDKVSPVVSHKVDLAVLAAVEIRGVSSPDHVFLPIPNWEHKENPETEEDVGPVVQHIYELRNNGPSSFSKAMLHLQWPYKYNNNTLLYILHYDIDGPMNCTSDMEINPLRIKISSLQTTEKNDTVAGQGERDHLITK
T3 sequence (P06756 891-1048 partner limits assumed): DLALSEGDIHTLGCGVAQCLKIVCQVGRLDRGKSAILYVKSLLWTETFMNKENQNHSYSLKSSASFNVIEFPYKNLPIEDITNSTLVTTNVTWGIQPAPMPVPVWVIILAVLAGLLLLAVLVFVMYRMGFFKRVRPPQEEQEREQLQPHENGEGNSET
T3 sequence (P05106 27-788): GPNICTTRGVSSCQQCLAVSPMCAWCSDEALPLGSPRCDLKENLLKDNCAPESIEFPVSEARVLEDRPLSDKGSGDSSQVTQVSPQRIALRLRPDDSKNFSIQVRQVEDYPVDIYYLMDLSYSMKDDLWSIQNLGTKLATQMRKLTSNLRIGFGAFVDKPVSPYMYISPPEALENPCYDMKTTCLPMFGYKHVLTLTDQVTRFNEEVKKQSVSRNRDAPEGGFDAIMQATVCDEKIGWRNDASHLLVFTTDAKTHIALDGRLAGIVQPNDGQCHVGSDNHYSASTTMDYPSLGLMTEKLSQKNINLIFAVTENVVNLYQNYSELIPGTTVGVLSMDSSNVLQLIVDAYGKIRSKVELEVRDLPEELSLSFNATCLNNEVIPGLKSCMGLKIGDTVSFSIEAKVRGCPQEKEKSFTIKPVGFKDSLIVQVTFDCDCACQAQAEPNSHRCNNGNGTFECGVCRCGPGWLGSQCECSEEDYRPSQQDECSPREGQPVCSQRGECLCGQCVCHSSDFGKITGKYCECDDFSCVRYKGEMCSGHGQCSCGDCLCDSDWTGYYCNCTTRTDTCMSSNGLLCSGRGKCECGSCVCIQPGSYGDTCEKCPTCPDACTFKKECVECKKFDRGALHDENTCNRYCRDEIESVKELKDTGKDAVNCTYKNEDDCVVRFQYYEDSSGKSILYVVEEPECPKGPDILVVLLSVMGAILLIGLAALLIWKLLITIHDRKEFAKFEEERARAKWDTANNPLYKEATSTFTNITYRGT
T4 sequence (P06756 31-889 limits assumed): as the sequence (P06756 31-889 limits assumed) above
T4 sequence (P06756 891-1048 partner limits assumed): as the sequence (P06756 891-1048 partner limits assumed) above
T4 sequence (P05106 27-788): as the sequence (P05106 27-788) above
T2 sequence (P06756 31-889 limits assumed): as the sequence (P06756 31-889 limits assumed) above
T2 sequence (P06756 891-1048 partner limits assumed): as the sequence (P06756 891-1048 partner limits assumed) above
T2 sequence (P18084 24-799): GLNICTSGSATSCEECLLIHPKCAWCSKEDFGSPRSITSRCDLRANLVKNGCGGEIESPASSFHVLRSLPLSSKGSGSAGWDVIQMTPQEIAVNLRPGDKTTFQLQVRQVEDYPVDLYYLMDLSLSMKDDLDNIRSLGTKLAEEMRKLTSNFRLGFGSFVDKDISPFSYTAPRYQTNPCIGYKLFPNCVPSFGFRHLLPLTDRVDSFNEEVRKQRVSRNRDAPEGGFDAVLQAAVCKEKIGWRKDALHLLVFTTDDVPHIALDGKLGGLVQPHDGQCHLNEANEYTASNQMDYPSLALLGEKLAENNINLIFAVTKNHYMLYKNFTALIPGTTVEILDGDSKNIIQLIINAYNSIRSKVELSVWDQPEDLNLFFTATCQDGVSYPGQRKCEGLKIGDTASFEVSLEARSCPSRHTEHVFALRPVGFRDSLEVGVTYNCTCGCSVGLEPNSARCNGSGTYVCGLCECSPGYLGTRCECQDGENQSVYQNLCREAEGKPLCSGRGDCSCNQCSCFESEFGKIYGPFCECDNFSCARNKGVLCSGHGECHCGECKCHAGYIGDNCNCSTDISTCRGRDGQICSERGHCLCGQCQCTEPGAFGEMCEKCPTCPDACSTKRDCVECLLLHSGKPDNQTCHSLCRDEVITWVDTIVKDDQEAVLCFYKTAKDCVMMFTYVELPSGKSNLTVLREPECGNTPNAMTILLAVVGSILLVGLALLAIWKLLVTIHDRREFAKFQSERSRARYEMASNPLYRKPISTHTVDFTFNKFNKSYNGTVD

By IC50 is commonly meant the concentration at which inhibition is half-maximal. For the molecule `NCCNC(=O)c1ccc(C(=O)NC[C@H](NS(=O)(=O)c2ccccc2)C(=O)O)s1` [Compound X, (2S)2-Benzenesulfonylamino-3-[5-(2-amino-ethylcarbamoyl)-thiophen-2-carbonyl]-amino propionic acid trifluoroacetic acid salt], the IC50 in assay [1], in assay [2] and in [3] was above 10 µM throughout.

Consider `N=C(N)NCCCNC(=O)c1ccc(C(=O)NC(CC(=O)O)c2ccccc2)s1` (stereo not drawn) [Compound VIII, 3-{[5-(3-guanidino-propylcarbamoyl)-thiophene-2-carbonyl]-amino}-3-phenyl-propionic acid], for which the IC50 is above 10 µM in [4], 3.2 µM in assay [6], 5.9 µM in assay [7] and above 10 µM in assay [8]. The “% of inhibition at 33 μg/mesh in the presence of VEGF” value (shortened to “% of inhibition at 33 μg/mesh”) in assay [5] is recorded as 36%.

For `CO[C@@H]1[C@H](OC(=O)NC(=O)CCl)CC[C@]2(CO2)[C@H]1[C@@]1(C)O[C@@H]1CC=C(C)C` [AGM-1470, chloroacetyl-(3R,4S,5S,6R)-5-methoxy-4-[(2R,3R)-2-methyl-3-(3-methyl-2-butenyl)oxiranyl]-1-oxaspiro[2.5]oct-6-yl ester carbamic acid, reference compound], in assay [9], the “Incidence of lung metastasis” value is given as 3/10 and the “Incidence of lymph node metastasis” value is on record as 1/10.

Take `N=C(N)NNC(=O)c1ccc(C(=O)NC[C@H](NS(=O)(=O)c2ccccc2)C(=O)O)s1.O=C(O)C(F)(F)F` [Compound XIX, 2S-Benzenesulfonylamino-3-[(5-guanidino-aminocarbonyl-thiophene-2-carbonyl)-amino]-3-propionic acid trifluoroacetate]: the values for the IC50 in [1] and in [3] were above 10 µM and 1.3 µM, respectively. Also, the “% of inhibition at 33 μg/mesh” value in assay [5] came out at 8%.

For the molecule `Cl.N=C(N)NCCNC(=O)c1ccc(C(=O)NC[C@H](NS(=O)(=O)c2ccccc2)C(=O)O)o1` [Compound XXI], the “% of inhibition at 33 μg/mesh” value in assay [5] amounted to 32%.

Consider `NNC(=O)c1ccc(C(=O)NC[C@H](NS(=O)(=O)c2ccccc2)C(=O)O)s1.O=C(O)C(F)(F)F` [Compound XVIII, 2S-Benzenesulfonylamino-3-[(5-hydrazinocarbonyl-thiophene-2-carbonyl)-amino]-3-propionic acid trifluoroacetate], for which, in assay [5], the “% of inhibition at 33 μg/mesh” value stood at 20%.
